Measurements published in patent US20130338217A1, “ANTIBIOTIC COMPOSITION INCLUDING PHLOROTANNIN COMPOUND DERIVED FROM EISENIA BICYCLIS AS EFFECTIVE COMPONENT” (PUKYONG NATIONAL UNIVERSITY INDUSTRY-UNIVERSITY C, priority 2012, published 2013).
≈ marks a conversion by molar mass, not a printed value. Read-outs that look alike come from different tables or passages of the source.

Columns and labels:
Format in all cases: cell-based, Staphylococcus aureus
[1] = test system: MSSA (KCTC 1927); experiment: Minimum inhibitory concentration, two-fold serial dilution, MSSA KCTC 1927
Method: (§1) All the bacterial strains used for the Example were obtained from the Korean Collection of Type Cultures (KCTC; Daejeon, Korea) and the Korean Culture Center of Microorganisms (KCCM; Seoul, Korea). The bacterial strains used for the Example were methicillin-susceptible S. aureus (MSSA; KCTC 1927), two MRSA strains (KCCM 40510 and KCCM 40511). All strains were grown in Mueller-Hinton broth (MHB; Difco, Detroit, USA) or Tryptic soy broth (TSB; Difco) for minimum inhibitory concentration (MIC) assay and in Mueller-Hinton agar (MHA; Difco) for disc diffusion.
(§2) MIC means the lowest concentration of antimicrobials that will inhibit the visible growth of microorganisms after overnight incubation. MICS of the extracts and vancomycin were determined by the two-fold serial dilution method in MHB.

[2] = test system: MSSA (KCCTC 1927); experiment: Checkerboard synergy of phlorofucofuroeckol-A and β-lactams, MSSA KCTC 1927; details: for MIC: Staphylococcus aureus, MSSA; for FIC index (b): β-lactam with phlorofucofuroeckol-A at 12.5 μg/ml; for FIC index (b) / FIC index (c): synergism ≦0.5, indifference >0.5 to ≦4, antagonism >4; for FIC index (c): β-lactam with phlorofucofuroeckol-A at 25 μg/ml
[3] = test system: MRSA (KCCM 40510); experiment: Checkerboard synergy of phlorofucofuroeckol-A and β-lactams, MRSA KCCM 40510; details: for MIC: Staphylococcus aureus; for FIC index (b): β-lactam with phlorofucofuroeckol-A at 12.5 μg/ml; for FIC index (b) / FIC index (c): synergism ≦0.5, indifference >0.5 to ≦4, antagonism >4; for FIC index (c): β-lactam with phlorofucofuroeckol-A at 25 μg/ml
Method: (§3) The interaction between phlorofucofuroeckol-A (PFF) and β-lactams including ampicillin, penicillin and oxacillin against MRSA was tested by the checkerboard method. The synergistic effect was evaluated as a fractional inhibitory concentration (FIC) index. The FIC was calculated as the MICS of an antibiotic or phlorofucofuroeckol-A (PFF) in combination divided by the MIC of the antibiotic or PFF alone as follows.
(§4) The FIC was then summed to derive the FIC index, which indicated synergy when index values were as follows:
(§5) synergism ≦≦0.5, indifference >0.5 to ≦≦4, antagonism >4.
(§6) FICA=MICA in combination/MICA, FICB=MICB in combination/MICB

[4] = test system: MRSA (KCCM 40511); experiment: Checkerboard synergy of phlorofucofuroeckol-A and β-lactams, MRSA KCCM 40511; details: for MIC: Staphylococcus aureus; for FIC index (b): β-lactam with phlorofucofuroeckol-A at 12.5 μg/ml; for FIC index (b) / FIC index (c): synergism ≦0.5, indifference >0.5 to ≦4, antagonism >4; for FIC index (c): β-lactam with phlorofucofuroeckol-A at 25 μg/ml
Method: as §3, §4, §5, §6

[5] = test system: MRSA (KCCM 40510); experiment: Minimum inhibitory concentration, two-fold serial dilution, MRSA KCCM 40510
Method: as §1, §2

[6] = test system: MRSA (KCCM 40511); experiment: Minimum inhibitory concentration, two-fold serial dilution, MRSA KCCM 40511
Method: as §1, §2

[7] = test system: mec operon (mecA, mecI, mecR1); experiment: RT-PCR of drug resistance related genes in MRSA; details: MRSA cells treated with various concentrations
Method: In order to elucidate the inhibitory effect of phlorofucofuroeckol-A on expression of drug resistance related genes, MRSA cells were treated with various concentrations of phlorofucofuroeckol-A. After cell harvesting, Total RNA was isolated from the strains with zirconia beads and RNAwiz with the manufacturer's specifications. RNA concentrations were estimated via spectrophotometer at 260 nm. The 0.2-1.4 μg of total RNA plus 1.4 μg of random primer was denatured at 65° C. for 5 min, then cooled at 30 sec and preincubated for 2 min at 37° C. after the addition of 10 mM dithioothreitol (DTT), 2.5 mM each of dNTPs, and reaction buffer. Any remaining cRNA was removed via the addition of 2 units RNase H at 37° C. for 20 min. One hundred units of Superscript II reverse transcriptase were added and incubated for 50 min at 37° C. The reaction was then suspended at 70° C. for 15 min. One point five percent of the RT products were added to a PCR reaction which included PCR buffer (pH 8.4, 20 mM Tris, 50 mM KCl), 1.5 mM MgCl2, 0.5 mM dNTPs, 2 pM primers and 0.1 μL Taq DNA polymerase. Twenty-eight PCR cycles were then conducted follows: denaturation at 95° C. annealing at an indicated temperature for each primer and extension at 72° C. […]

[8] = test system: PBP2a; experiment: Western blot of PBP2a in MRSA; details: MRSA cells treated with various concentrations
Method: In order to elucidate the inhibitory effect of phlorofucofuroeckol-A on expression of a drug resistance related protein, PBP2a, MRSA cells were treated with various concentrations of phlorofucofuroeckol-A. After cell harvesting, the bacterial lysates were prepared in a lysis buffer containing 20 mM Tris-HCl (pH 7.5), 2 mM ethyleneglycoltetraacetic acid (EGTA), 2 mM ethylenediaminetetraacetic acid (EDTA) and 0.25 M sucrose. The pellets were resuspended by sonication in lysis buffer 2 times for 20 sec. Following 10 min of centrifugation at 13,000×g, the supernatant was obtained as the cell lysate. Protein concentrations were measured with Bradford protein assay. An equal amount of 2×SDS-PAGE sample buffer (pH […], 1 mM EGTA, 1 mM EDTA, 1% SDS, 150 mM NaCl) was added to the tubes containing the cell lysate and the tubes were boiled for 3 min. Aliquots of cellular proteins were then electrophoresed on 10%.

[9] = test system: MRSA; experiment: Synergy of PFF with β-lactams against MRSA as stated in text; details: PFF 25 pg/mL as printed
Method: as §3

[10] = Staphylococcus aureus, Table 5, PFF and β-lactams, mecA negative strain, read-out: MIC
[11] = in combination with phlorofucofuroeckol-A at 12.5 μg/ml, read-out: MIC of β-lactam (B)
[12] = in combination with phlorofucofuroeckol-A at 25 μg/ml, read-out: MIC of β-lactam (C)
[13] = without phlorofucofuroeckol-A, read-out: MIC of β-lactam (A)
[14] = Table 6, isolated phlorotannins
[15] = Staphylococcus aureus, Table 5, PFF and β-lactams, mecA positive strain, read-out: MIC
[16] = Staphylococcus aureus, Table 6, isolated phlorotannins, read-out: MIC
[17] = Table 5, PFF and β-lactams, mecA negative strain
[18] = Table 5, PFF and β-lactams, mecA positive strain
[19] = in combination with phlorofucofuroeckol-A at 12.5 μg/ml
[20] = in combination with phlorofucofuroeckol-A at 25 μg/ml

Sequence of PBP2a (P07944 whole entry): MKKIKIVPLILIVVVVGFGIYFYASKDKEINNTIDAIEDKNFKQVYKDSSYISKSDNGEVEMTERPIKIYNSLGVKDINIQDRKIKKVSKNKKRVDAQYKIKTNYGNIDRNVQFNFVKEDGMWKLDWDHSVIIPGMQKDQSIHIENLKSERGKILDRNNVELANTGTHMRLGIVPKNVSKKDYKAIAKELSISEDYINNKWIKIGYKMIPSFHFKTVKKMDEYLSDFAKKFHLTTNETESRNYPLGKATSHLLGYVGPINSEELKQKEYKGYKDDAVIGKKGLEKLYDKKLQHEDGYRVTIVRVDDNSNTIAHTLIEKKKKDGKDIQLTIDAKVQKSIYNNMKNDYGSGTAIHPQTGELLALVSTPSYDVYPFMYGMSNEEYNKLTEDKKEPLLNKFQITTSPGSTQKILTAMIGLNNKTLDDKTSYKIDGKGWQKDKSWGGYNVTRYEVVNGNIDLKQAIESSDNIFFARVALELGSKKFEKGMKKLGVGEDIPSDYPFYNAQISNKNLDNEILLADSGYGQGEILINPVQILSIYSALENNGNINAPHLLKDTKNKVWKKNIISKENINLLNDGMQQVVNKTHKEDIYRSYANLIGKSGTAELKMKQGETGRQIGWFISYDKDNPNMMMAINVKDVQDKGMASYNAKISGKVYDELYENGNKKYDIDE

`CC1(C)S[C@@H]2[C@H](NC(=O)[C@H](N)c3ccccc3)C(=O)N2[C@H]1C(=O)O` [Ampicillin, ampicillin] gave an MIC [1, 10] of 0.063 µg/mL (≈ 0.18 µM), an MIC [2, 11] of 0.063 µg/mL and an MIC [2, 12] of 0.063 µg/mL. The MIC [2, 13] was 0.063 µg/mL, the “FIC index (b)” value [2] was 1.391 and the “FIC index (c)” value [2] was 1.781. It also gave an MIC [3, 11] of 16 µg/mL, an MIC [3, 12] of 8 µg/mL and an MIC [3, 13] of 512 µg/mL. For the same compound, the “FIC index (b)” value [3] was 0.422, the “FIC index (c)” value [3] was 0.407 and the MIC [4, 11] was 2 µg/mL. For the same compound, the MIC [4, 12] was 1 µg/mL, the MIC [4, 13] was 512 µg/mL and the “FIC index (b)” value [4] was 0.395. The “FIC index (c)” value [4] was 0.393.

In the case of `Oc1cc(O)cc(Oc2c(O)cc(O)c3c2Oc2c(O)cc(Oc4c(O)cc(O)cc4O)cc2O3)c1` [PE, 1-(3′,5′-dihydroxyphenoxy)-7-(2″,4″,6-trihydroxyphenoxy)-2,4,9-trihydroxydibenzo-1,4-dioxin], the MIC [1, 14] is reported as 64 µg/mL (≈ 129 µM), the MIC [5, 14] is reported as 32 µg/mL (≈ 64.5 µM) and the MIC [6, 14] is reported as 64 µg/mL (≈ 129 µM).

`Cc1onc(-c2ccccc2)c1C(=O)N[C@@H]1C(=O)N2[C@@H]1SC(C)(C)[C@@H]2C(=O)O` [Oxacillin, oxacillin] was tested, and the MIC [1, 10] was 0.063 µg/mL (≈ 0.157 µM), the MIC [5, 15] was 256 µg/mL (≈ 638 µM) and the MIC [6, 15] was 128 µg/mL (≈ 319 µM). For the same compound, the MIC [2, 11] was 0.063 µg/mL, the MIC [2, 12] was 0.063 µg/mL and the MIC [2, 13] was 0.063 µg/mL. The “FIC index (b)” value [2] was 1.391, the “FIC index (c)” value [2] was 1.781 and the MIC [3, 11] was 8 µg/mL. For the same compound, the MIC [3, 12] was 4 µg/mL, the MIC [3, 13] was 256 µg/mL and the “FIC index (b)” value [3] was 0.422. For the same compound, the “FIC index (c)” value [3] was 0.407, the MIC [4, 11] was 1 µg/mL and the MIC [4, 12] was 0.5 µg/mL. The MIC [4, 13] was 128 µg/mL, the “FIC index (b)” value [4] was 0.399 and the “FIC index (c)” value [4] was 0.395.

In the case of `Oc1cc(O)cc(Oc2c(O)cc(O)c3c2Oc2c(O)cc(O)cc2O3)c1` [EK, eckol], the MIC [1, 16] is reported as 64 µg/mL (≈ 172 µM), the MIC [5, 16] is reported as 64 µg/mL (≈ 172 µM) and the MIC [6, 16] is reported as 64 µg/mL (≈ 172 µM).

`CN[C@H](CC(C)C)C(=O)N[C@H]1C(=O)N[C@@H](CC(N)=O)C(=O)N[C@H]2C(=O)N[C@H]3C(=O)N[C@H](C(=O)N[C@H](C(=O)O)c4cc(O)cc(O)c4-c4cc3ccc4O)[C@H](O)c3ccc(c(Cl)c3)Oc3cc2cc(c3O[C@@H]2O[C@H](CO)[C@@H](O)[C@H](O)[C@H]2O[C@H]2C[C@](C)(N)[C@H](O)[C@H](C)O2)Oc2ccc(cc2Cl)[C@H]1O` [Vancomycin, vancomycin] was tested, and the MIC ([1]; Staphylococcus aureus) was 0.5 µg/mL (≈ 0.345 µM), the MIC ([5]; Staphylococcus aureus) was 2 µg/mL (≈ 1.38 µM) and the MIC ([6]; Staphylococcus aureus) was 2 µg/mL (≈ 1.38 µM).

In the case of `Oc1cc(O)cc(Oc2c(O)cc(O)c3c2Oc2c(O)cc(Oc4c(O)cc(Oc5c(O)cc(O)c6c5Oc5c(O)cc(O)cc5O6)cc4O)cc2O3)c1` [DE, dieckol], the MIC [1, 16] is reported as 32 µg/mL (≈ 43.1 µM), the MIC [5, 16] is reported as 32 µg/mL (≈ 43.1 µM) and the MIC ([6]; Staphylococcus aureus) is reported as 64 µg/mL (≈ 86.2 µM).

Compound penicillin has an MIC [1, 17] of 0.125 µg/mL, an MIC [5, 18] of 512 µg/mL and an MIC [6, 18] of 256 µg/mL. The “MIC of β-lactam (B)” value [2, 19] was 0.125 µg/mL, the “MIC of β-lactam (C)” value [2, 20] was 0.125 µg/mL and the “MIC of β-lactam (A)” value ([2]; without phlorofucofuroeckol-A) was 0.125 µg/mL. For the same compound, the “FIC index (b)” value [2] was 1.391, the “FIC index (c)” value [2] was 1.781 and the “MIC of β-lactam (B)” value [3, 19] was 4 µg/mL. The “MIC of β-lactam (C)” value [3, 20] was 2 µg/mL, the “MIC of β-lactam (A)” value ([3]; without phlorofucofuroeckol-A) was 512 µg/mL and the “FIC index (b)” value [3] was 0.399. The “FIC index (c)” value [3] was 0.395, the “MIC of β-lactam (B)” value [4, 19] was 1 µg/mL and the “MIC of β-lactam (C)” value [4, 20] was 0.5 µg/mL. The “MIC of β-lactam (A)” value ([4]; without phlorofucofuroeckol-A) was 256 µg/mL, the “FIC index (b)” value [4] was 0.395 and the “FIC index (c)” value [4] was 0.393.

Work on `Oc1cc(O)c2oc3cc(O)c4oc5cc(O)cc(O)c5oc4c3oc2c1` [DD, dioxinodehydroeckol] yielded an MIC ([1]; Staphylococcus aureus) of 64 µg/mL (≈ 173 µM), an MIC ([5]; Staphylococcus aureus) of 64 µg/mL (≈ 173 µM) and an MIC ([6]; Staphylococcus aureus) of 64 µg/mL (≈ 173 µM).

Compound fucofuroeckol-A [FF] has an MIC [1, 14] of 32 µg/mL, an MIC [5, 14] of 64 µg/mL and an MIC [6, 14] of 64 µg/mL.

In the case of phlorofucofuroeckol A [PFF], the MIC [1, 17] is reported as 32 µg/mL, the MIC [1, 14] is reported as 32 µg/mL and the MIC [5, 18] is reported as 32 µg/mL. The MIC [5, 14] was 32 µg/mL, the MIC [6, 18] was 32 µg/mL and the MIC [6, 14] was 32 µg/mL. The “gene transcription of mec operon (mecA, mecI, mecR1)” value [7] was “inhibited the gene transcription of mec operon (mecA, mecI, mecR1) involving in synthesizing PBP2a depending on the concentrations”, the “PBP2a synthesis (protein expression)” value [8] was “inhibited a PBP2a synthesis that is a final product of mecA gene depending on the concentrations” and the “effect on the MICs of the β-lactams against MRSA” value [9] was “remarkably reduce the MICS of the β-lactams against MRSA”.
